Consider three molecules from patent US20220016241A1, “COMPOSITIONS AND METHODS FOR REDUCING ANTIGEN-SPECIFIC IMMUNOGENICITY” (The Research Foundation for The State University of New York, priority 2013, published 2022).

One data set relates to anti-GAA antibody titers. Description: Effect of OPLS on immunogenicity of GAA protein. The note with it: 5 mg dose with 1 μg GAA, 4 weekly s.c., 2 week rest. The data set is classed as in vivo, mice. How it is done:
Materials and Methods: GAA Source: Full length recombinant rhGAA was produced in Human Kidney Embryo Cells for our use by Creative Biomart (Shirley, N.Y.); OPLS Source: Sigma-Aldrich (St. Louis, Mo.). n=8 animals/group were immunized with 4 weekly s.c. injections of 1 μg of GAA in 100 μl of either sterile TRIS for the free group or in 5 mg OPLS in sterile TRIS for the OPLS-GAA group. A group of 8 mice will receive the same dose of CBrhGAA in 5 mg O-phospho-D-serine (OPDS) solution as a negative control. After a 2 week rest period, a blood sample from the saphenous vein will be collected. Samples were stored at −80° C. until analysis. These samples were then analyzed for anti-GAA Ab titers. Anti-GAA antibody titers were measured as follows: ELISA plate (maxisorp, NUNC) was coated with 50 μl of 5 μg/ml of sterile rhGAA in sodium carbonate-bicarbonate buffer pH =9.6. The plate was incubated overnight at 4° C. The plate was washed six times with PBS containing 0.05% Tween 20 (PBS-T, 250 μl/well) using an automated plate washer. The plate was blocked with PBS containing 1% BSA (300 μl/well) as the block buffer for 2 hr at 37° C. […] The reaction was stopped with 2 N sulfuric acid and read immediately at 450 nm using a micro-plate reader. The titer values are quantitated using a statistical endpoint method as described by Frey et al. Control plasma samples were run on each plate. […]

Data set [1] relates to anti-FVIII antibody titers. The experiment in a line: FVIII-specific tolerance with OPLS, OPDS or Dex, rechallenge with free FVIII (FIG. 11). The note with it: s.c. co-administration with FVIII, then s.c. free FVIII.
The next data set relates to anti-GAA total titers. The experiment in a line: OPLS-GAA sequential administration study. In kind it is in vivo, Mice. As to the method: This examples describes OPLS-GAA sequential administration study. To determine if OPLS can exert its immunomodulatory effects on the immune response to GAA when the two are administered in separate spaced injections, at the same injection site the following experiments were carried out. Mice (n=6 animals/group) were immunized with 4 weekly sc injections as follows. One group of animals received one single combined injection of 5 mg OPLS and 1 μg rhGAA(100 μl volume). Recombinant human GAA was produced by Creative Biomart. The second group received one injection of 5 mg OPLS (100 μl volume) then after a 5 minute wait they received a second injection of 1 μg rhGAA in sterile TRIS (100 μl volume) in the same injection site. The final control group received one injection of sterile TRIS (100 μl volume) then after a 5 minute wait they received a second injection of 1 μg rhGAA in sterile TRIS (100 μl volume) in the same injection site. After a two week rest period a saphenous blood sample was collected. All of the mice were then rechallenged with 4 weekly injections of 1 μg of rhGAA in 100 μl sterile TRIS (one single injection). Analysis was done by ELISA for total titers. The mean free GAA after 6 weeks was 3135±910, When co-administered, the GAA was 787±155, and when administered separately (sequentially), the GAA was 926±202 (FIG. 26). After re-challenge, terminal sampling was done at week 11. The mean free GAA after 11 weeks was 8775±2363, When co-administered, the GAA was 895±335, and when administered separately (sequentially), the GAA was 1884±761. […] Either administration method was able to induce a hypo-responsiveness towards GAA.

Data set [2] is described as follows: Rituximab pharmacokinetics after iv and sc administration in isotonic and hypertonic buffers. The data set is classed as in vivo, SW mice. How it is done: Preparation and characterization of injection buffers: One isotonic and six different hypertonic TRIS buffers were prepared to investigate the effects of hypertonicity and buffer composition on rituximab lymphatic uptake and plasma exposure (Table 1.).
Isotonic TRIS buffer was prepared using 25 mM TRIS and 150 mM NaCl (Buffer A). Hypertonic (600 mmol/kg) TRIS buffers were prepared with 25 mM of TRIS containing 300 mM NaCl (Buffer B). Buffers “C” and “E” contained NaCl as well as 20 mM of OPLS or Mannitol. To further delineate the effects of buffer composition on lymphatic uptake, we prepared two buffers at 600 mmol/kg with a 270 mM of OPLS (Buffer D) or mannitol (Buffer F). […] Osmolarity was measured using a 5500 Vapor Pressure Osmometer (Wescore Inc. Logen, Utah, USA) according to manufacturer's instruction.
Rituximab pharmacokinetics studies: 126 male SW mice were divided into 7 groups. […] The disposition of RXT will be determined from the iv PK profile and convoluted with the absorption data generated from the sc studies. […] Immediately before analysis; the inguinal lymph nodes were homogenized in 300 μl of PBS on ice and then analyzed.
Analysis of RXT in plasma and lymph node samples: Analysis of plasma and lymph node samples from PK studies was done with a standard ELISA. […] Optical density at 450 nm was measured using a plate reader.

On to `N[C@H](COP(=O)(O)O)C(=O)O` [OPDS, O-Phospho-D-Serine, reference compound], for which, in the data set on anti-GAA antibody titers, the “Anti-GAA antibody titers vs GAA alone” value is reported as “lower”. For the same molecule, the “FVIII-specific hypo-responsiveness upon rechallenge” value in data set [1] is “did not”.
Turning to “free GAA: Full length recombinant rhGAA produced in Human Kidney Embryo Cells by Creative Biomart”, the “Total titers (ELISA), week 11 after re-challenge” value with anti-GAA total titers (control group, rechallenge 4 weekly 1 μg rhGAA) was 8775±2363. Besides, the “Total titers (ELISA), week 6” value in the data set with anti-GAA total titers (control: TRIS then 1 μg rhGAA 5 min later, same site, 4 weekly sc) was 3135±910.
As for “rituximab: Commercial preparation of rituximab (RXT)”, the “sc bioavailability of rituximab” value in data set [2] (1 μg/g in isotonic Buffer A) worked out at 0.29. For the same molecule, the “Fraction of the dose taken up by the lymph nodes” value in data set [2] (1 μg/g sc in isotonic Buffer A, estimated) is reported as 0.05.
